{"source": "paper PMC6982808", "about": "“Design and Biological Evaluation of Colchicine-CD44-Targeted Peptide Conjugate in an In Vitro Model of Crystal Induced Inflammation” (Molecules, 2019)", "key": {"[1]": {"system": "CD44 receptor on THP-1 macrophages", "assay": "CD44 surface expression on THP-1 macrophages under conditions of inflammation (flow cytometry)", "type": "cell-based, human", "conditions": "24 h, serum-free medium", "procedure": "THP-1 monocytes were cultured in RPMI 1640 medium supplemented with 10% heat-inactivated FBS, 10 mM HEPES, 2 mM glutamine, 100 U/I penicillin, and 100 μg/mL streptomycin and maintained at 37 °C and 5% CO2. THP-1 monocytes were differentiated into THP-1 macrophages using 50 ng/mL phorbol-12-myristate 13-acetate (PMA) for 24 h. Subsequently, adherent cells were washed twice with serum-free medium and rested for another 24 h in PMA-free RPMI + 10% FBS medium. CD44 expression on THP-1 macrophages was conducted using flow cytometry following incubation with the CD44-specific antibody (1:1000 dilution) for 1 h followed by cell pelleting and washing the cell pellet with PBS. THP-1 macrophages were then incubated with DyLight 488 goat anti-mouse IgG at 1:1000 dilution for 30 min. […] THP-1 macrophages were washed with PBS, collected, and CD44 expression was determined using flow cytometry as described above."}, "[2]": {"biological_target": "T1, recombinant human CD44 receptor (Homo sapiens, UniProt P16070)", "T1 construct": "purchased R&D Systems", "T1 sequence (P16070 with tags, fused parts or gaps limits assumed)": "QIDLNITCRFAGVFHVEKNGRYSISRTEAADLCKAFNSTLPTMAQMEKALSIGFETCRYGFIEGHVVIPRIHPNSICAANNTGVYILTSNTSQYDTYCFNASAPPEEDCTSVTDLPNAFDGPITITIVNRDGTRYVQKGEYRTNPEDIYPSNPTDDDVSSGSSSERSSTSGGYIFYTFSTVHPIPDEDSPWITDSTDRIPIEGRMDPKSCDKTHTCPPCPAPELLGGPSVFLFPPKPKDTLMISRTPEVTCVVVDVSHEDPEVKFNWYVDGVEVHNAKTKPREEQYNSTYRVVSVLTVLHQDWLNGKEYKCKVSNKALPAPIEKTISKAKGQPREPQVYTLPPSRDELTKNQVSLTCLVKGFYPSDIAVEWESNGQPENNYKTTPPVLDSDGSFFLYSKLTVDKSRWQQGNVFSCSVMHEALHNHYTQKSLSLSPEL", "assay": "ELISA binding of coated P6 peptide or HA to CD44-IgG Fc fusion protein", "conditions": "for binding to the CD44 receptor (ELISA absorbance at 450 nm): wells coated 1 ng/mL to 1 μg/mL, CD44-IgG Fc 0.1 µg/mL, 1 h room temperature, three independent experiments", "procedure": "Wells of high-binding microtiter plates were coated with either the P6 peptide or high molecular weight HA (molecular weight >1 million Da) in serial concentrations between 1 ng/mL and 1 μg/mL overnight in phosphate buffered saline (PBS) (100 µL per well) at 4 °C. […] CD44-IgG Fc fusion protein (R&D Systems) (0.1 µg/mL) in PBS + 0.05% Tween 20 (100 µL per well) was added to both coated and uncoated wells and incubated for 1 h at room temperature. Following washing with PBS + 0.1% Tween 20, anti-human IgG Fc-HRP (1:1000) was added and incubated at room temperature for 1 h, followed by washing three times with PBS + 0.05% Tween 20. Turbo TMB-ELISA substrate solution was added (100 µL per well), and absorbance intensity was determined at 450 nm. Absorbance values in the […] to adjust for any non-specific binding by CD44-IgFc."}, "THP-1 macrophages [3]": {"system": "THP-1 macrophages", "assay": "MSU crystal phagocytosis by THP-1 macrophages (flow cytometry side-scatter, % cells in P2 region)", "type": "cell-based, human", "procedure": "THP-1 macrophages (500,000 cells per well) were treated with MSU crystals (100 μg/mL) ± HA (100 μg/mL) for 4 h. Subsequently, macrophages were collected, pelleted, and washed with PBS. MSU phagocytosis was determined by analyzing the change in cell side-scatter using a flow cytometer. Two regions of interest were identified: the P1 region representing the THP-1 macrophage population in the absence of MSU crystal exposure and the P2 region with increased cell side scatter indicative of MSU phagocytosis. Data are presented as the percentage of cells in the P2 region across different experimental groups.\nSubsequently, cells were treated with MSU crystals (100 μg/mL) for 4 h. MSU phagocytosis by THP-1 macrophages was determined using flow cytometry as described above."}, "THP-1 macrophages [4]": {"system": "THP-1 macrophages", "assay": "Cytotoxicity against THP-1 macrophages (Cell Counting Kit-8)", "conditions": "24 h, CCK-8; for cytotoxic effect against THP-1 macrophages (in words): 1, 10 and 25 μM, three independent experiments", "procedure": "Subsequently, 10 μL of CCK-8 solution was added to each well and absorbance was measured 90 min later at 450 nm. Cytotoxicity was expressed as the percentage of viable cells following treatments."}, "in vitro": {"assay": "in vitro", "conditions": "human, cerebrospinal or other body fluid", "quoted_text": "Using seven microcentrifuge tubes, a total of 50 μL of normal SF was diluted with 150 μL of PBS in each tube. Following equilibrating diluted SF to 37 ± 1 °C for 15 min, 50 μL of peptide stock solution (1 mM solution in 100% sterile water) was added to each tube. Next, at different time intervals (0, 1, 2, 3, 4, 6, and 24 h), an aliquot of the reaction solution (100 μL) was sampled. Cold methanol (200 μL) was added to each aliquot in order to precipitate proteins that were present in the SF. This was followed by cooling the solution to 4 °C for 15 min followed by centrifugation at 500 g for 15 min to precipitate SF proteins. To determine the proteolytic stability of the P6 peptide, the supernatant was injected into an analytical RP-HPLC C18 column. In order to measure the concentration of the P6 peptide isolated from SF, the area under the curve (AUC) of the P6 peptide at each time point was estimated using an average of four runs, and normalized to AUC values at time 0 and expressed as the percentage of AUC at time 0."}, "THP-1 macrophages [5]": {"system": "THP-1 macrophages", "assay": "IL-8 secretion by MSU-stimulated THP-1 macrophages (ELISA)", "type": "cell-based, human", "conditions": "1, 10 and 25 μM, 24 h, then MSU 100 μg/mL 6 h; vs MSU alone", "procedure": "(§1) THP-1 macrophages (500,000 cells per well) were treated with MSU crystals (100 μg/mL) for 2, 4, and 6 h. ROS staining solution (1:1000 ratio) was added to the wells and incubated for 1 h. Subsequently, cells were collected, washed, and cell-associated fluorescence was determined using flow cytometry. Media were collected at 2, 4, and 6 h, and IL-8 media concentrations were determined by ELISA. […] Subsequently, cells were treated with MSU crystals (100 μg/mL) for 6 h. ROS generation and IL-8 concentrations were determined as described above."}, "THP-1 macrophages [6]": {"system": "THP-1 macrophages", "assay": "ROS generation in MSU-stimulated THP-1 macrophages (flow cytometry)", "type": "cell-based, human", "conditions": "10 and 25 μM, 24 h, then MSU 100 μg/mL 6 h; vs MSU alone", "procedure": "as §1"}}, "note": "Ends that are not written are not given here.", "data": [{"compound": "O=c1[nH]c(=O)c2[nH]c(=O)[nH]c2[nH]1", "note": "[UA, uric acid]", "values": [{"measurement": "enhancement in cell surface CD44 protein staining compared to untreated control macrophages", "setting": "[1]; UA 10 mg/dL", "result": "approximately 3 fold"}]}, {"compound": "IL-1β: recombinant human IL-1β, proinflammatory cytokine", "values": [{"measurement": "enhancement in cell surface CD44 protein staining compared to untreated control macrophages", "setting": "[1]; IL-1β 10 ng/mL", "result": "approximately two-fold"}]}, {"compound": "hyaluronic acid [HA]", "values": [{"measurement": "binding to the CD44 receptor (ELISA absorbance at 450 nm)", "setting": "[2]", "result": "concentration-dependent binding"}, {"measurement": "MSU phagocytosis by THP-1 macrophages", "setting": "THP-1 macrophages [3]; 100 μg/mL co-treatment with MSU 100 μg/mL for 4 h", "result": "significantly reduced MSU phagocytosis"}]}, {"compound": "WYKGDKFLYLQNGIEAIADF-NH2 [P6 peptide]", "values": [{"measurement": "cytotoxic effect against THP-1 macrophages (in words)", "setting": "THP-1 macrophages [4]", "result": "no cytotoxic effect"}, {"measurement": "difference between P6 peptide and HA binding to CD44", "setting": "[2]; across all coating concentrations 1 ng/mL to 1 μg/mL", "result": "no significant difference"}, {"measurement": "binding to the CD44 receptor (ELISA absorbance at 450 nm)", "setting": "[2]", "result": "concentration-dependent binding"}, {"measurement": "half-life at 200 μM", "setting": "in vitro", "result": "~4", "unit": "h"}, {"measurement": "IL-8 secretion", "setting": "THP-1 macrophages [5]", "result": "reduced"}, {"measurement": "MSU phagocytosis by THP-1 macrophages", "setting": "THP-1 macrophages [3]; 10 and 25 μM, 24 h pre-treatment, then MSU 100 μg/mL 4 h, vs MSU alone", "result": "significantly reduced MSU phagocytosis"}, {"measurement": "ROS generation", "setting": "THP-1 macrophages [6]", "result": "reduced"}]}, {"compound": "COc1cc2c(c(OC)c1OC)-c1ccc(OC)c(=O)cc1[C@@H](NC(C)=O)CC2", "note": "[colchicine]", "values": [{"measurement": "reduction of macrophage cell viability", "setting": "THP-1 macrophages [4]; 1 μM", "result": "approximately 50%"}, {"measurement": "reduction of macrophage cell viability", "setting": "THP-1 macrophages [4]; 25 μM", "result": "approximately 80%"}, {"measurement": "cytotoxic effect against THP-1 macrophages (in words)", "setting": "THP-1 macrophages [4]", "result": "dose-dependent cytotoxic effect"}, {"measurement": "IL-8 secretion", "setting": "THP-1 macrophages [5]", "result": "reduced"}, {"measurement": "MSU phagocytosis by THP-1 macrophages", "setting": "THP-1 macrophages [3]; 1, 10 and 25 μM, 24 h pre-treatment, then MSU 100 μg/mL 4 h, vs MSU alone", "result": "reduced MSU phagocytosis"}, {"measurement": "ROS generation", "setting": "THP-1 macrophages [6]", "result": "reduced"}]}]}
